“Also recorded” adds a separate entry of the source.
Columns and labels:
[1] = tested on: cell cultures; conditions: cited from earlier work
[2] = tested on: STOP+/− mice; assay: Open field locomotor activity; type: in vivo, mouse
Protocol: The NAP vehicle solution (termed DD), included the following ingredients (per milliliter): 7.5 mg of NaCl, 1.7 mg of citric acid monohydrate, 3 mg of disodium phosphate dihydrate, and 0.2 mg of benzalkonium chloride solution (50%) (Alcalay R N et al., Neurosci Lett, 361(1-3): 128-131 (2004)). NAP or vehicle solution (DD) was administered to mice hand-held in a semisupine position with nostrils facing the investigator. A pipette tip was used to administer 2.5 μl/nostril. The mouse was hand-held until the solution was totally absorbed (10 s). […] STOP+/− male mice (5 months old, n=4) received daily doses of 10 mg/kg intraperitoneal injection (IP) of clozapine (5 days a week), for the duration of the experiment (7 weeks). A control STOP+/− male mice group (5 month old, n=3) were injected daily with saline. NAP treatment included daily (5 days a week) intranasal administrations (0.5 μg/5 μl/mouse/day) for 7-10 weeks. For intranasal administration, the peptide was dissolved in the vehicle solution (termed DD) described above. Each experimental group included 10-12 mice, 4-12 month-old; mean age 6 months). […]
Locomotor activity was measured in 5 consecutive sessions, 3 minutes each and the mean path length in cm of each mouse in the 3 minute sessions per the entire 15 minute period of observation in open field (80 cm diameter) was determined. […]

In the case of `CC[C@H](C)[C@H](NC(=O)[C@H](CO)NC(=O)[C@@H](NC(=O)[C@@H]1CCCN1C(=O)[C@H](C)NC(=O)[C@@H](N)CC(N)=O)C(C)C)C(=O)N1CCC[C@H]1C(=O)N[C@@H](CCC(N)=O)C(=O)O` [NAP], the “neuroprotective activity against a wide variety of toxins” value [1] is given as “neuroprotective activity at femtomolar concentrations”, the “hyper-locomotion (path length) in open field” value ([2]; Example 3, STOP+/− male mice, NAP intranasal 0.5 μg/mouse/day or clozapine 10 mg/kg IP, FIG. 8) is given as “significantly decreased the hyper-locomotion; also recorded: significantly reduced the path length” and the open field activity ([2]; Example 4, STOP+/− mice, NAP intranasal 0.5 microgram/mouse/day, clozapine injection 3 mg/kg/day, FIG. 11) is given as “also reduced the activity”.

— patent US20120010148A1, “COMBINATION THERAPIES USING NAP” (ALLON THERAPEUTICS INC., priority 2008, published 2012)
